Read-outs that look alike come from different tables or passages of the source.
Columns and labels:
hDHODH (Met30–Arg396) [1] = molecular target: T1, hDHODH (Met30–Arg396) (Homo sapiens, UniProt Q02127); experiment: In vitro enzyme assay, hDHODH (DCIP reduction); format: biochemical; details: for IC50: in vitro enzyme assay
T1 construct: enzyme activity determination of PfDHODH (Phe158–Ser569) and hDHODH (Met30–Arg396); made in house
Procedure: (§1) Protein expression, purification, and enzyme activity determination of PfDHODH (Phe158–Ser569) and hDHODH (Met30–Arg396) were performed according to our previous work. The enzymes were diluted to a final concentration of 10 nM using the assay buffer containing 50 mM HEPES (pH 8.0), 150 mM KCl, 0.1% Triton X-100 supplemented with 100 µM UQ0, and 120 µM DCIP. The mixture was transferred into a 96-well plate and incubated with or without various amounts of inhibitors for 5 min at room temperature, and then the dihydroorotate was added to a final concentration of 500 µM to initiate the reaction. The reaction was monitored by measuring the decrease in DCIP in the absorption at 600 nm at each 30 s over a period of 6 min. Brequinar and DSM1 were measured as the positive controls for hDHODH and PfDHODH, respectively. Percent inhibition relative to no inhibitor control was calculated by (1 − Vi/V0) × 100. For the determination of the IC50 value of the inhibitor, eight or nine different concentrations were applied. Each inhibitor concentration point was tested in triplicate, and the IC50 values were calculated using the sigmoidal fitting option of the program Origin 8.0 (Originlab, Northampton, MA, US).

PfDHODH (Phe158–Ser569) [2] = molecular target: T2, PfDHODH (Phe158–Ser569) (Plasmodium falciparum, UniProt Q08210); experiment: In vitro enzyme assay, PfDHODH (DCIP reduction); format: biochemical; details: for inhibitory activity against PfDHODH (in words): qualitative statement
T2 construct: enzyme activity determination of PfDHODH (Phe158–Ser569) and hDHODH (Met30–Arg396); made in house
T2 sequence (Q08210 158-569): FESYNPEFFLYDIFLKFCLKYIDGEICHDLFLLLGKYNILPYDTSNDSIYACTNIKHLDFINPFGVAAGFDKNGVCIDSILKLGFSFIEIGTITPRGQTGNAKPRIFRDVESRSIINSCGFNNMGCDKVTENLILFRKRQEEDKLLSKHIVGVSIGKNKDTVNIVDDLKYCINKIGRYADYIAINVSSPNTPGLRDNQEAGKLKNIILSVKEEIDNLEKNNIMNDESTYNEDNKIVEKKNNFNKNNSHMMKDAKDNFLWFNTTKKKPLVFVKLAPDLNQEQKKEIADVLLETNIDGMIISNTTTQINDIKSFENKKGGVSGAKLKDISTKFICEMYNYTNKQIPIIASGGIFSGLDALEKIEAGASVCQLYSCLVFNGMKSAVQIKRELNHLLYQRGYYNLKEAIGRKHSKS
Procedure: as §1, with “Brequinar and DSM1 were measured as the positive controls for hDHODH and PfDHODH, respectively.” left out

[3] = parameters: method as in PMID 27641613; details: compared with DSM 265; cited from earlier work
[4] = parameters: method as in PMID 27641613; details: compared with DSM 265; cited from earlier work; remark: listed apart in the source
[5] = parameters: method as in PMID 27641613; details: compared with DSM 265; cited from earlier work; remark: listed apart in the source
PfDHODH (Phe158–Ser569) [6] = molecular target: T2, PfDHODH (Phe158–Ser569); parameters: method as in PMID 24073986; details: previous work; read-out: IC50 against PfDHODH; cited from earlier work
Dd2 cells = tested on: Dd2 cells; parameters: method as in PMID 24073986; details: read-out: IC50 parasite growth in vitro, Dd2 cells; cited from earlier work
hDHODH (Met30–Arg396) [7] = molecular target: T1, hDHODH (Met30–Arg396); parameters: method as in PMID 24073986; details: previous work; cited from earlier work
[8] = parameters: method as in PMID 24073986; details: cited from earlier work
[9] = parameters: method as in PMID 24073986; details: cited from earlier work; remark: listed apart in the source
3D7 cells = tested on: 3D7 cells; parameters: method as in PMID 24073986; details: read-out: IC50 parasite growth in vitro, 3D7 cells; cited from earlier work
[10] = in vitro enzyme assay, read-out: IC50 (μM) PfDHODH

T1 sequence (Q02127 29-395 limits assumed): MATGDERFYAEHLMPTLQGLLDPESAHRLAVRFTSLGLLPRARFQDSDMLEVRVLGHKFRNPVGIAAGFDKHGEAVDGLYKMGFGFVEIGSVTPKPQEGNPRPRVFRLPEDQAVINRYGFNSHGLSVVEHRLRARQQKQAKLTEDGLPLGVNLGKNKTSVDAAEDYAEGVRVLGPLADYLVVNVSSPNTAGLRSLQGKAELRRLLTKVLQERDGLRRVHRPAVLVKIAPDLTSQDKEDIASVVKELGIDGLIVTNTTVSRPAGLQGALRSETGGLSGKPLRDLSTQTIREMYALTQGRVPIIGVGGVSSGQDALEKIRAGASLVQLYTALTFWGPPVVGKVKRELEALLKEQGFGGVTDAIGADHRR

## NN1CN(c2ccc3ccccc3c2)C2=C(C(=O)CO2)C1=O [Compound 26, 3-Amino-1-(naphthalen-2-yl)-2,3-dihydrofuro[2,3-d]pyrimidine-4,5(1H,6H)-dione]
hDHODH (Met30–Arg396) [1]; PfDHODH versus hDHODH
  species selectivity over hDHODH: > 400 fold
hDHODH (Met30–Arg396) [1]
  IC50: > 10 µM
PfDHODH (Phe158–Ser569) [2]; compared with compound 20
  fold more active against PfDHODH than compound 20: 3 fold
PfDHODH (Phe158–Ser569) [2]; [10]
  IC50: 0.023 ± 0.001 µM
other
  melting point: 168.4 to 169.2 °C

## O=C1COC(Nc2ccc3ccccc3c2)=C1C(=O)NC1CC1 [Compound 18, N-Cyclopropyl-2-(naphthalen-2-ylamino)-4-oxo-4,5-dihydrofuran-3-carboxamide]
hDHODH (Met30–Arg396) [1]
  IC50: > 10 µM
PfDHODH (Phe158–Ser569) [2]; [10]
  IC50: 6 ± 1 µM
other
  melting point: 140.8 to 141.6 °C

## O=C1COC(Nc2ccc3ccccc3c2)=C1C(=O)NCC1CC1 [Compound 19, N-(Cyclopropylmethyl)-2-(naphthalen-2-ylamino)-4-oxo-4,5-dihydrofuran-3-carboxamide]
hDHODH (Met30–Arg396) [1]
  IC50: > 10 µM
PfDHODH (Phe158–Ser569) [2]; [10]
  IC50: > 10 µM
PfDHODH (Phe158–Ser569) [2]
  inhibitory activity against PfDHODH (in words): lost the inhibitory activity
other
  melting point: 164.8 to 165.3 °C

## CCCNC(=O)C1=C(Nc2ccc3ccccc3c2)OCC1=O [Compound 16, 2-(Naphthalen-2-ylamino)-4-oxo-N-propyl-4,5-dihydrofuran-3-carboxamide]
hDHODH (Met30–Arg396) [1]
  IC50: > 10 µM
PfDHODH (Phe158–Ser569) [2]; [10]
  IC50: > 10 µM
PfDHODH (Phe158–Ser569) [2]
  inhibitory activity against PfDHODH (in words): lost their activities

## CNC(=O)C1=C(Nc2ccc3ccccc3c2)OCC1=O [Compound 14, N-Methyl-2-(naphthalen-2-ylamino)-4-oxo-4,5-dihydrofuran-3-carboxamide]
hDHODH (Met30–Arg396) [1]
  IC50: > 10 µM
PfDHODH (Phe158–Ser569) [2]; [10]
  IC50: 9 ± 1 µM
other
  melting point: 126.3 to 126.9 °C

## Cc1cc(Nc2ccc(C(F)(F)F)nc2)n2nc(C(C)(F)F)nc2n1 [Compound 9]
[3]
  solubility (in words): improved solubility
[4]
  intrinsic clearance (in words): lower intrinsic clearance
[5]
  plasma exposure after oral dosing (in words): increased plasma exposure after oral dosing

## NNC(=O)C1=C(Nc2ccc3ccccc3c2)OCC1=O [Compound 20, 2-(Naphthalen-2-ylamino)-4-oxo-4,5-dihydrofuran-3-carbohydrazide]
hDHODH (Met30–Arg396) [1]
  IC50: > 10 µM
PfDHODH (Phe158–Ser569) [2]; [10]
  IC50: 0.07 ± 0.01 µM
other
  melting point: 167.3 to 167.9 °C

## CCNC(=O)C1=C(Nc2ccc3ccccc3c2)OCC1=O [Compound 15, N-Ethyl-2-(naphthalen-2-ylamino)-4-oxo-4,5-dihydrofuran-3-carboxamide]
hDHODH (Met30–Arg396) [1]
  IC50: > 10 µM
PfDHODH (Phe158–Ser569) [2]; [10]
  IC50: 4.8 ± 0.4 µM
other
  melting point: 121.8 to 123 °C

## CCN1CN(c2ccc3c(c2)CCC3)C2=C(C(=O)CO2)C1=O [Compound 21, 1-(2,3-Dihydro-1H-inden-5-yl)-3-ethyl-2,3-dihydrofuro[2,3-d]pyrimidine-4,5(1H,6H)-dione]
hDHODH (Met30–Arg396) [1]
  IC50: > 10 µM
PfDHODH (Phe158–Ser569) [2]; [10]
  IC50: > 10 µM
other
  melting point: 128.6 to 129.4 °C

## CCN1CN(c2ccc3ccccc3c2)C2=C(C(=O)CO2)C1=O [Compound 23, 3-Ethyl-1-(naphthalen-2-yl)-2,3-dihydrofuro[2,3-d]pyrimidine-4,5(1H,6H)-dione]
hDHODH (Met30–Arg396) [1]
  IC50: > 10 µM
PfDHODH (Phe158–Ser569) [2]; [10]
  IC50: 4 ± 1 µM
other
  melting point: 128.3 to 129 °C

## CCNC(=O)C1=C(Nc2ccccc2)OCC1=O [Compound 12, N-Ethyl-4-oxo-2-(phenylamino)-4,5-dihydrofuran-3-carboxamide]
hDHODH (Met30–Arg396) [1]
  IC50: 2.4 ± 0.1 µM
PfDHODH (Phe158–Ser569) [2]; [10]
  IC50: > 10 µM
PfDHODH (Phe158–Ser569) [2]
  inhibitory activity against PfDHODH (in words): inactive
other
  melting point: 146.9 to 147.4 °C

## CCOC(=O)C1=C(Nc2ccc3ccccc3c2)OCC1=O [Compound 10]
PfDHODH (Phe158–Ser569) [6]
  IC50: 0.006 µM
Dd2 cells
  IC50: 0.018 µM
hDHODH (Met30–Arg396) [7]
  species selectivity over hDHODH: > 14,000 fold
[8]
  metabolic properties (in words): poor metabolic properties
[9]
  efficacy in vivo (in words): less effective in vivo
3D7 cells
  IC50: 0.015 µM

## CCNC(=O)C1=C(Nc2ccc3c(c2)CCC3)OCC1=O [Compound 13, 2-[(2,3-Dihydro-1H-inden-5-yl)amino]-N-ethyl-4-oxo-4,5-dihydrofuran-3-carboxamide]
hDHODH (Met30–Arg396) [1]
  IC50: > 10 µM
PfDHODH (Phe158–Ser569) [2]; [10]
  IC50: > 10 µM
other
  melting point: 127.7 to 128.2 °C

## CN1CN(c2ccc3ccccc3c2)C2=C(C(=O)CO2)C1=O [Compound 22, 3-Methyl-1-(naphthalen-2-yl)-2,3-dihydrofuro[2,3-d]pyrimidine-4,5(1H,6H)-dione]
hDHODH (Met30–Arg396) [1]
  IC50: > 10 µM
PfDHODH (Phe158–Ser569) [2]; [10]
  IC50: 8 ± 1 µM
other
  melting point: 127.9 to 128.5 °C

## O=C(O)C1=C(Nc2ccc3ccccc3c2)OCC1=O [Compound 11, 2-(Naphthalen-2-ylamino)-4-oxo-4,5-dihydrofuran-3-carboxylic acid]
hDHODH (Met30–Arg396) [1]
  IC50: > 10 µM
PfDHODH (Phe158–Ser569) [2]; [10]
  IC50: 0.106 ± 0.009 µM
PfDHODH (Phe158–Ser569) [2]
  inhibitory activity against PfDHODH (in words): lower inhibitory activity in comparison with 10
other
  melting point: 164.4 to 165 °C

## CCCN1CN(c2ccc3ccccc3c2)C2=C(C(=O)CO2)C1=O [Compound 24, 1-(Naphthalen-2-yl)-3-propyl-2,3-dihydrofuro[2,3-d]pyrimidine-4,5(1H,6H)-dione]
hDHODH (Met30–Arg396) [1]
  IC50: > 10 µM
PfDHODH (Phe158–Ser569) [2]; [10]
  IC50: 12 ± 6 µM
other
  melting point: 128.6 to 129.7 °C

## O=C1COC2=C1C(=O)N(C1CC1)CN2c1ccc2ccccc2c1 [Compound 25, 3-Cyclopropyl-1-(naphthalen-2-yl)-2,3-dihydrofuro[2,3-d]pyrimidine-4,5(1H,6H)-dione]
hDHODH (Met30–Arg396) [1]
  IC50: > 10 µM
PfDHODH (Phe158–Ser569) [2]
  IC50: 5 ± 1 µM
other
  melting point: 128.8 to 129.5 °C

From publication PMC6099574, “Synthesis, Design, and Structure–Activity Relationship of the Pyrimidone Derivatives as Novel Selective Inhibitors of Plasmodium falciparum Dihydroorotate Dehydrogenase” (Molecules : A Journal of Synthetic Chemistry and Natural …, 2018)
